Assay results published in PMC6278378, “Virtual Screening, Biological Evaluation, and 3D-QSAR Studies of New HIV-1 Entry Inhibitors That Function via the CD4 Primary Receptor” (Molecules, 2018).
“Also recorded” adds a separate entry of the source. Peptide text beside a SMILES is read from it.

What was measured:
CD4 = target: T1, CD4 (Homo sapiens, UniProt P01730); assay: CD4 competitive binding assay (FITC anti-human CD4 antibody, SUP-T1 cells); conditions: for Inhibition at 100 μM (%) / inhibition at 100 µM: inhibition of anti-human CD4 antibody binding to SUP-T1 cells; for PInhibition (Experimental Data): transformed from % inhibition at 100 μM, presented as -ln
T1 construct: endogenous in cells; host or cells: SUP-T1 cells
Description: We chose CD4-expressing SUP-T1 cells to perform the competitive CD4 binding assay. Non-labeled anti-human CD4 antibody (RPA-T4 clone, BioLegend, San Diego, CA, USA) was used as a positive control.
The SUP-T1 cells were cultured in RPMI1640 medium supplemented with 10% (v/v) fetal bovine serum (FBS), 100 IU penicillin, 0.1 mg/mL streptomycin, and 2 mM L-glutamine. After collecting and washing twice with fluorescence activated cell sorting (FACS) buffer (0.5% BSA, 0.05% sodium azide in PBS) by centrifugation, SUP-T1 cells were seeded in a 96-well v-bottom plate at 5 × 10^5 cells/well. The supernatant was discarded by centrifugation and the cell pellet was resuspended with 50 μL various 2× concentrations of test compounds and 50 μL fluorescein isothiocyanate (FITC) labeled anti-human CD4 antibody (RPA-T4 clone, BioLegend, San Diego, CA, USA). The plate was incubated for 40 min on ice. After incubation, the cells were washed twice with FACS buffer by centrifugation, and then resuspended with the assay buffer. The FACS buffer was added at a volume of 50 μL per well. The fluorescence (485EX/528EM) was recorded using a Synergy II plate reader (BioTek Instruments, Inc., Winooski, VT, USA). Experimental data were generated in duplicate each time, and from at least three independent experiments. The mean values of fluorescence were normalized and expressed as a percentage of the control group values. Binding curves and IC50 values were calculated by GraphPad Prism 7 (GraphPad Software Inc., La Jolla, CA, USA) and presented as the mean ± SEM.

HIV-1 (NL4-3 strain) = assay: microbe, parasite or virus in culture; type: cell-based; conditions: Human immunodeficiency virus 1, NL43, PBMC; 0.1 μM, PBMCs; read-out: Inhibition of HIV-1 entry (intracellular p24)
Description: We also performed anti-HIV-1 entry assays to investigate the potential suppression by 3 of HIV-1 infection via its entry mechanism.
The Anti-HIV-1 entry assay was performed by measuring intercellular p24 antigen. Before the infection, PBMCs (2.5 × 10^6 cells/mL) were added into 96-well plates at 100 μL/well, then co-incubated with compounds of various concentrations for 2 h. PBMCs were then washed twice with PBS and infected with the NL4-3 strain of HIV-1 at an MOI of 0.02 for 2 h at 37 °C with 5% CO2 (CO2 incubator, Eppendorf, Hamburg, Germany). After two washes with PBS (1200 rpm, 20 °C, 5 min), the cells were re-suspended in 100 µL complete medium and incubated for 24 h. Subsequently, the PBMCs were washed and resuspended in 100 µL/well lysis buffer containing 1% protease inhibitor cocktail (Sigma-Aldrich, St. Louis, MO, USA). The intercellular p24 antigen was measured according to the protocol provided with the HIV-1 ELISA kit (PerkinElmer Inc. Waltham, MA, USA).

HIV-1 = tested on: HIV-1; parameters: method as in PMID 12207905; conditions: cited from earlier work
HIV-1 NL4-3 strain = assay: Anti-HIV-1 infection assay (CEM-GFP reporter cells, GFP fluorescence); type: cell-based; conditions: Human immunodeficiency virus 1, NL43, HIV-1 NL4-3, 4-5 days
Text: We performed anti-HIV-1 infection and anti-HIV-1 entry assays by measuring GFP expression and intracellular p24 antigen level. For the anti-HIV-1 infection assays, the CEM-GFP reporter cell line was used, and HIV-1 infection induced a 10- to 1000-fold increase in the relative fluorescence of the cells.
The CEM-GFP cells were obtained from the NIH AIDS program (NIH AIDS Reagent Program, Division of AIDS, NIAID, NIH: CEM-GFP Cells from Dr. Jacques Corbeil) and cultured in RPMI 1640 medium containing 10% FBS, 1% penicillin-streptomycin (Life Technologies, Carlsbad, CA, USA), 1% 200 mM L-glutamine (Mediatech-VWR, Aurora, CO, USA), and 500 µg/mL G418 (BioPioneer Inc, San Diego, CA, USA). After collecting and counting, the CEM-GFP cells were infected with HIV-1 NL4-3 strain (MOI 0.01) at 37 °C for 2–3 h, cells were then washed twice with PBS, and 10^5 cells/well were seeded into a 96-well plate in the presence of different concentrations of test compounds. After culturing at 37 °C with 5% CO2 for 4 or 5 days, the GFP fluorescence (485EX/528EM) was measured using a Synergy II microplate reader (BioTek Instruments, Inc., Winooski, VT, USA).

[1] = tested on: HIV-1 nucleocapsid-p7 protein (NC-p7); parameters: method as in PMID 12207905; conditions: cited from earlier work
CEM-GFP cell line = assay: CEM-GFP cell viability (CellTiter Blue); type: cell-based; conditions: highest concentration 25 µM
Text: Figure 3 The competitive CD4 binding assay results of analogs of 3 (A).
We also evaluated the anti-HIV-1 infection activity of 29 using the CEM-GFP reporter cell line.

Structure (SMILES)	Inhibition at 100 μM (%) (CD4)	PInhibition (Experimental Data) (CD4)	also measured
Cc1cc(=O)oc2cc(O)cc(O)c12 [Compound 6]	5.64	2.762	–
CCCCCCCCCCCC(=O)c1c(O)c2ccccc2oc1=O [Compound 17]	–	3.774	–
O=C(O)Cc1cc(=O)oc2cc(O)ccc12 [Compound 19]	–	3.668	–
N[C@@H](CSC1(c2ccc(Cl)cc2)c2ccccc2-c2ccccc21)C(=O)O [Compound 4]	–	–	inhibition at 100 µM (CD4): 22.6%
c1cc(CN2CCCNCCNCCCNCC2)ccc1CN1CCCNCCNCCCNCC1 [AMD3100, reference compound]	–	–	inhibition at 0.1 µM (HIV-1 (NL4-3 strain)): 57.6%
Cc1cc(=O)c2c(o1)-c1c(cc(O)c(O)c1C(=O)O)OC2 [Compound 30]	6.48	2.841	–
Cc1cc(=O)c2cccc(CC(=O)O)c2o1 [Compound 26]	18.10	3.344	–
CC(=O)/C=C(\c1ccccc1)c1c(O)c2ccccc2oc1=O [Compound 15]	15.80	3.273	–
O=c1oc2cc(O)ccc2c2c1CCCC2 [Compound 12]	5.27	2.745	–
Cc1cc(=O)oc2c(O)c(O)ccc12 [Compound 11]	10.83	3.084	–
CCCCC(=O)c1c(O)c2ccccc2oc1=O [Compound 18]	–	3.771	–
Cn1c(=O)c2c(nc(NCCNc3nc4c(c(=O)n(C)c(=O)n4C)n3C)n2C)n(C)c1=O [Compound 1]	–	–	inhibition at 100 µM (CD4): 34.2%
O=C(O)Cc1cccc2c(=O)cc(C3CCCCC3)oc12 [Compound 25]	–	3.541	–
O=C(/C=C/c1ccccc1)CCc1c(O)c2ccccc2oc1=O [Compound 20]	–	3.874	–
O=C(O)Cc1cccc2c(=O)cc(-c3ccccc3)oc12 [Compound 21]	–	3.702	inhibition at 100 µM (CD4): > 20%
O=C(O)CCc1cccc2c(=O)cc(-c3ccccc3)oc12 [Compound 23]	–	3.690	–

Structure (SMILES)	Inhibition at 100 μM (%) (CD4)	PInhibition (Experimental Data) (CD4)	also measured
O=C(O)/C=C/c1c2ccc(=O)c(O)c-2oc2c(O)c(O)ccc12 [Compound 28]	–	4.566	–
Nc1ccn([C@H]2O[C@H](CO)[C@@H]3[O][Sn]([c]4ccccc4)([c]4ccccc4)[O][C@H]32)c(=O)n1 [Compound 5]	33.09	–	–
CSCCC(NC(=O)C(CC(C)C)NC(=O)CNC(=O)C(NC(=O)C(Cc1ccccc1)NC(=O)C(CCC(N)=O)NC(=O)C(CC(=O)O)NC(=O)C(CO)NC(=O)C(CCCCN)NC(=O)C1CCCN1C(=O)C(NC(=O)C(N)CC(=O)O)C(C)C)C(C)C)C(N)=O (stereo not drawn) [Compound 9] (H-DVPKSDQFVGLM-NH2; configuration not given here)	6.40	2.835	–
O=C(O)/C=C/c1c2ccc(=O)c(O)c-2oc2c(O)c(O)ccc12 [Compound 29]	–	4.763	inhibition of HIV-1 infection (HIV-1): inhibit HIV-1 infection; IC50 (HIV-1 NL4-3 strain): 2 µM; IC50 (CD4; SUP-T1 cells, anti-human CD4 antibody competition): 14 µM; binding to NC-p7 [1]: bind; Cytotoxicity in CEM-GFP cell line (CEM-GFP cell line): complete lack of cytotoxicity effect; also recorded: no cytotoxicity
O=C(O)CCC(=O)c1ccc(Oc2ccccc2)cc1 [Compound 32]	–	3.400	–
CCCCC(=O)c1c(O)ccc2c(C)cc(=O)oc12 [Compound 8]	12.04	3.136	–
CCC(=O)c1cc2ccc(O)cc2oc1=O [Compound 13]	11.80	3.126	–
O=C(O)Cc1cc(=O)oc2cc(O)ccc12 [Compound 10]	16.98	3.311	–
O=c1oc2cccc(O)c2c(O)c1Cc1ccccc1 [Compound 14]	8.47	2.966	–
O=c1oc2c(cc1O)oc(=O)c1cc(O)c(O)c(O)c12 [Compound 31]	–	–	inhibition at 100 µM (CD4): 16%
Cc1cc2c(=O)cc(-c3ccccc3)oc2c(C(=O)O)c1C [Compound 27]	–	4.024	–
CCC(=O)c1c(O)c2ccccc2oc1=O [Compound 16]	19.76	3.391	–
Nc1ccc(S(=O)(=O)c2ccc(NCN3C(=O)NC(=O)C(=O)C3=O)cc2)cc1 [Compound 2]	–	–	inhibition at 100 µM (CD4): 36.9%
O=C(O)Cc1cccc2c(=O)cc(Cc3ccccc3)oc12 [Compound 24]	–	3.920	–
CC(=O)c1c(O)c2ccccc2oc1=O [Compound 7]	8.87	2.988	–
Cc1ccc(-c2cc(=O)c3cccc(CC(=O)O)c3o2)cc1 [Compound 22]	–	3.809	–
